{
  "source": "paper PMC2805098",
  "about": "(Biochemistry, 2009)",
  "key": {"wild-type MTHFR [1]": {"tested_on": "wild-type MTHFR", "conditions": "25 °C, pH 7.2, cited from earlier work"}, "Phe223Leu MTHFR [2]": {"molecular_target": "T1, Phe223Leu MTHFR (Escherichia coli, UniProt P0AEZ1, F223L)", "experiment": "Oxidative half-reaction with CH2-H4folate, stopped-flow", "type": "biochemical"}, "Phe223Leu MTHFR [3]": {"molecular_target": "T1, Phe223Leu MTHFR", "experiment": "NADH-CH2-H4folate oxidoreductase assay, steady-state", "type": "biochemical"}, "wild-type MTHFR [4]": {"tested_on": "wild-type MTHFR", "conditions": "25 °C, cited from earlier work"}, "Phe223Ala MTHFR [5]": {"molecular_target": "T2, Phe223Ala MTHFR (Escherichia coli, UniProt P0AEZ1, F223A)", "experiment": "Oxidative half-reaction with CH2-H4folate, stopped-flow", "type": "biochemical"}, "Phe223Ala MTHFR [6]": {"molecular_target": "T2, Phe223Ala MTHFR", "experiment": "NADH-CH2-H4folate oxidoreductase assay, steady-state"}, "Phe223Leu MTHFR [7]": {"molecular_target": "T1, Phe223Leu MTHFR", "experiment": "Reaction of reduced enzyme with menadione, stopped-flow", "type": "biochemical", "conditions": "[…] μM menadione, within dead time of the instrument, data not shown"}, "Phe223Ala MTHFR [8]": {"molecular_target": "T2, Phe223Ala MTHFR", "experiment": "Reaction of reduced enzyme with menadione, stopped-flow", "type": "biochemical", "conditions": "[…] μM menadione, within dead time of the instrument, data not shown"}, "Phe223Ala MTHFR [9]": {"molecular_target": "T2, Phe223Ala MTHFR", "experiment": "Reductive half-reaction with NADH, stopped-flow", "type": "biochemical"}, "PheA2": {"tested_on": "PheA2", "conditions": "read-out: Km for NADH; 53 °C; cited from earlier work"}, "Phe223Leu MTHFR [10]": {"molecular_target": "T1, Phe223Leu MTHFR", "experiment": "NADH-menadione oxidoreductase assay, steady-state", "type": "biochemical"}, "HpaC": {"tested_on": "HpaC", "conditions": "read-out: Km for NADH; 30 °C; cited from earlier work"}, "Phe223Ala MTHFR [11]": {"molecular_target": "T2, Phe223Ala MTHFR", "experiment": "NADH-menadione oxidoreductase assay, steady-state", "type": "biochemical", "conditions": "[…] μM menadione, varying NADH, 25 °C, pH 7.2"}, "wild-type MTHFR [12]": {"tested_on": "wild-type MTHFR", "conditions": "25 °C, pH 7.2, cited from earlier work", "remark": "listed apart in the source"}, "Phe223Leu MTHFR [13]": {"molecular_target": "T1, Phe223Leu MTHFR", "experiment": "Reductive half-reaction with NADH, stopped-flow", "type": "biochemical"}, "wild-type MTHFR [14]": {"tested_on": "wild-type MTHFR", "conditions": "25 °C, pH 7.2; cited from earlier work"}, "Phe223Leu MTHFR [15]": {"molecular_target": "T1, Phe223Leu MTHFR", "experiment": "NADPH binding", "conditions": "data not shown"}, "[16]": {"conditions": "25 °C, pH 7.2, anaerobic, 450 nm"}},
  "note": "“And” between values parts separate entries of the source, which are not always exact repeats. Equal entries are not always repeated. Where two headings read alike, the source gives them in different places.",
  "data": [
    {"compound": "Nc1nc2c(c(=O)[nH]1)N1CN(c3ccc(C(=O)N[C@@H](CCC(=O)O)C(=O)O)cc3)C[C@H]1CN2", "note": "[CH2-H4folate, 5,10-methylenetetrahydrofolate]", "values": [
      {"measurement": "kcat", "setting": "wild-type MTHFR [1]", "result": "10.4 ± 1.0", "unit": "s⁻¹"},
      {"measurement": "Ki", "setting": "wild-type MTHFR [1]; read-out: Ki for CH2-H4folate", "result": "320 ± 25", "unit": "µM"},
      {"measurement": "Km", "setting": "wild-type MTHFR [1]; read-out: Km for CH2-H4folate", "result": "0.5 ± 0.1", "unit": "µM"},
      {"measurement": "Kd", "setting": "Phe223Leu MTHFR [2]", "result": "9 ± 2", "unit": "µM"},
      {"measurement": "increase in rate of oxidation compared to slow phase of wild-type enzyme", "setting": "Phe223Leu MTHFR [2]", "result": 3, "unit": "fold"},
      {"measurement": "Ki", "setting": "Phe223Leu MTHFR [3]", "result": "160 ± 27", "unit": "µM"},
      {"measurement": "CH2-H4folate concentration above which inhibition was seen", "setting": "Phe223Leu MTHFR [3]; 1000 μM NADH", "result": "exceeding 100 μM"},
      {"measurement": "theoretical turnover number calculated from the two half-reactions", "setting": "Phe223Leu MTHFR [3]; eq 8, ping-pong bi-bi", "result": 17, "unit": "s⁻¹"},
      {"measurement": "k5’, slow phase", "setting": "wild-type MTHFR [4]; pH 7.2, slow phase", "result": "10.3 ± 1.0 ^e s^−1"},
      {"measurement": "Kd", "setting": "wild-type MTHFR [4]; read-out: Kd for CH2-H4folate, pH 7.2", "result": "11 ± 1", "unit": "µM"},
      {"measurement": "Kd", "setting": "Phe223Ala MTHFR [5]", "result": "500 ± 230", "unit": "µM"},
      {"measurement": "change in standard free binding energy for CH2-H4folate", "setting": "Phe223Ala MTHFR [5]", "result": 2.3, "unit": "kcal/mol"},
      {"measurement": "decrease in affinity for CH2-H4folate compared to wild-type", "setting": "Phe223Ala MTHFR [5]", "result": 45, "unit": "fold"},
      {"measurement": "slower rate of oxidation compared to slow phase of wild-type", "setting": "Phe223Ala MTHFR [5]", "result": 2, "unit": "fold"},
      {"measurement": "k5’ maximal rate constant, slow phase", "setting": "Phe223Ala MTHFR [5]; 25 °C, pH 7.2, anaerobic, slow phase (~16% of absorbance change)", "result": "4.5 ± 1.1 ^e s^−1"},
      {"measurement": "decrease in kcat compared to wild-type", "setting": "Phe223Ala MTHFR [6]", "result": 4, "unit": "fold"},
      {"measurement": "kcat", "setting": "Phe223Ala MTHFR [6]; anaerobic, 25 °C, pH 7.2", "result": "2.9 s⁻¹ and 2.9 ± 0.5 s⁻¹"},
      {"measurement": "theoretical turnover number calculated from the two half-reactions", "setting": "Phe223Ala MTHFR [6]; eq 9, slow phase of oxidation", "result": 4.0, "unit": "s⁻¹"}
    ]},
    {"compound": "CC1=CC(=O)c2ccccc2C1=O", "note": "[menadione]", "values": [
      {"measurement": "time of reaction of reduced enzyme with menadione", "setting": "Phe223Leu MTHFR [7]", "result": "≤ 3", "unit": "ms"},
      {"measurement": "time of reaction of reduced enzyme with menadione", "setting": "Phe223Ala MTHFR [8]", "result": "≤ 3", "unit": "ms"}
    ]},
    {"compound": "NADH", "values": [
      {"measurement": "k2’ maximal observed rate constant for reduction", "setting": "Phe223Ala MTHFR [9]; [16]", "result": "40 ± 2", "unit": "s⁻¹"},
      {"measurement": "change in standard free binding energy for NADH", "setting": "Phe223Ala MTHFR [9]; at 298 K, from 40-fold increase in Kd", "result": 2.2, "unit": "kcal/mol"},
      {"measurement": "Km", "setting": "PheA2", "result": 8.8, "unit": "µM"},
      {"measurement": "increase in Km for NADH compared to wild-type", "setting": "Phe223Leu MTHFR [10]", "result": 7, "unit": "fold"},
      {"measurement": "kcat", "setting": "Phe223Leu MTHFR [10]; […] μM menadione, varying NADH, 25 °C, pH 7.2", "result": "31 ± 4", "unit": "s⁻¹"},
      {"measurement": "Km", "setting": "HpaC", "result": 36.8, "unit": "µM"},
      {"measurement": "kcat", "setting": "Phe223Ala MTHFR [11]", "result": "22 ± 4", "unit": "s⁻¹"},
      {"measurement": "k2’", "setting": "wild-type MTHFR [12]", "result": "55 ± 6", "unit": "s⁻¹"},
      {"measurement": "Kd", "setting": "wild-type MTHFR [12]; read-out: Kd for NADH", "result": "32 ± 5", "unit": "µM"},
      {"measurement": "increase in Kd for NADH over wild-type enzyme", "setting": "Phe223Leu MTHFR [13]", "result": 14, "unit": "fold"},
      {"measurement": "k2’ maximal observed rate constant for reduction", "setting": "Phe223Leu MTHFR [13]; [16]", "result": "35 ± 1", "unit": "s⁻¹"},
      {"measurement": "kcat", "setting": "wild-type MTHFR [14]", "result": "55 ± 8.3", "unit": "s⁻¹"}
    ]},
    {"compound": "NADPH", "values": [
      {"measurement": "ability to bind NADPH", "setting": "Phe223Leu MTHFR [15]", "result": "no ability to bind NADPH"}
    ]}
  ]
}
